Results published in EP1976513B1 (priority 2006, dated 2007).

Each compound was assayed against human serotonin reuptake transporter (Homo sapiens, UniProt P31645) (assay: cell-based). Conditions: Human IC50 (nM) hSERT.
human serotonin reuptake transporter, sequence (P31645 whole entry): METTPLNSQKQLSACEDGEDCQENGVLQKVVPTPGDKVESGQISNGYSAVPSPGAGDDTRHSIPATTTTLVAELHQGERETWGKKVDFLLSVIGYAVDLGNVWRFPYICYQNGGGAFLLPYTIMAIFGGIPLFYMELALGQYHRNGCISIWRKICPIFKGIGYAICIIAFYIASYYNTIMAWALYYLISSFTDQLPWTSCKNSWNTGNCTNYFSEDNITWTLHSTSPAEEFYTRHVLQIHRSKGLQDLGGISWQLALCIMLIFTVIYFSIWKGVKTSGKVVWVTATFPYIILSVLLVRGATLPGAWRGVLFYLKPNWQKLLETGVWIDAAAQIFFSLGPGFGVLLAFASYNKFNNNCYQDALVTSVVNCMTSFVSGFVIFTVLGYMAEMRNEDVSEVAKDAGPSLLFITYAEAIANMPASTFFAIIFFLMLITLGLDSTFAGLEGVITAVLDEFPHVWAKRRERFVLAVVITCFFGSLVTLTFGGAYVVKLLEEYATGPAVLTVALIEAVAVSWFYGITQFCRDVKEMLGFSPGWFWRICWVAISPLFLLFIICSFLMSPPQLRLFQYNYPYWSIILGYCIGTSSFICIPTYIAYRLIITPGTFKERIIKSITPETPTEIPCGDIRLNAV
Work on `CC(C)CC(N)C1(c2ccc(Cl)cc2)CCCCC1` (single isomer, unassigned) [21 E1, 1-(1-(4-chlorophenyl)cyclohexyl)-3-methylbutan-1-amine] yielded an IC50 of 9660 nM. Compound `CC(C)CC(N)C1(c2ccc(Cl)cc2)CCCCC1` (single isomer, unassigned) [21 E2, 1-(1-(4-chlorophenyl)cyclohexyl)-3-methylbutan-1-amine] has an IC50 of 1240 nM. `CNCC1(c2ccc(Cl)c(Cl)c2)CCCC(F)(F)C1` (single isomer, unassigned) [205 E1, 1-(1-(3,4-dichlorophenyl)-3,3-difluorocyclohexyl)-N-methylmethanamine] showed an IC50 of 4210 nM. For `CNCC1(c2ccc(Cl)c(Cl)c2)CCCC(F)(F)C1` (single isomer, unassigned) [205 E2, 1-(1-(3,4-dichlorophenyl)-3,3-difluorocyclohexyl)-N-methylmethanamine], the IC50 was 1710 nM. In the case of `CC(C)CC(N)C1(c2ccc(Cl)cc2)CCCCC1` (centres unmarked) [Compound 21, 1-(1-(4-chlorophenyl)cyclohexyl)-3-methylbutan-1-amine], the IC50 was 2100 nM.

Same assay, conditions: Human IC50 (nM) hSERT, recombinant human serotonin transporter (SERT)
`CNCC1(c2cccc(C(F)(F)F)c2)CCCCC1` [Compound 104, N-methyl-1-(1-(3-(trifluoromethyl)phenyl)-cyclohexyl)methanamine] was tested, and the IC50 was 9490 nM.

Same assay, conditions: recombinant human serotonin transporter (SERT); read-out: Human IC50 (nM) hSERT
With `CC(N)C1(c2ccc(OC(F)(F)F)cc2)CCCCC1` (single isomer, unassigned) [19 E1, 1-(1-(4-(trifluoromethoxy)phenyl)cyclohexyl)ethanamine] the IC50 was 1510 nM. Work on `CC(N)C1(c2ccc(OC(F)(F)F)cc2)CCCCC1` (single isomer, unassigned) [19 E2, 1-(1-(4-(trifluoromethoxy)phenyl)cyclohexyl)ethanamine] yielded an IC50 of 398 nM. `CC(N)C1(c2ccc(-c3ccco3)cc2)CCCCC1` (single isomer, unassigned) [22 E1, 1-(1-(4-(furan-2-yl)phenyl)cyclohexyl)ethanamine] was tested, and the IC50 was 63 nM. For `CC(N)C1(c2ccc(-c3ccco3)cc2)CCCCC1` (single isomer, unassigned) [22 E2, 1-(1-(4-(furan-2-yl)phenyl)cyclohexyl)ethanamine], the IC50 was 101 nM. Work on `CNCC1(c2ccc(Cl)cc2)CCCCC1O` (single isomer, unassigned) [136 E1, trans-2-(4-chlorophenyl)-2-((methylamino)methyl)-cyclohexanol] yielded an IC50 of over 10000 nM. Work on `CNCC1(c2ccc(Cl)cc2)CCCCC1O` (single isomer, unassigned) [136 E2, trans-2-(4-chlorophenyl)-2-((methylamino)methyl)-cyclohexanol] yielded an IC50 of over 10000 nM. For `CNCC1(c2ccc(OC)cc2)CCCCC1O` (single isomer, unassigned) [140 E2, trans-2-(4-Methoxyphenyl)-2-((methylamino)methyl)cyclohexanol], the IC50 was over 10000 nM. `CCNCC1(c2ccc(Cl)c(Cl)c2)CCCCC1CO` (single isomer, unassigned) [169 E1, (2-(3,4-dichlorophenyl)-2-((ethylamino)methyl)-cyclohexyl)methanol] showed an IC50 of 1100 nM. Work on `CCNCC1(c2ccc(Cl)c(Cl)c2)CCCCC1CO` (single isomer, unassigned) [169 E2, (2-(3,4-dichlorophenyl)-2-((ethylamino)methyl)-cyclohexyl)methanol] yielded an IC50 of 332 nM. `NCC1(c2ccc(Cl)c(Cl)c2)CCCC(O)C1` (single isomer, unassigned) [184 E1, Cis-3-(aminomethyl)-3-(3,4-dichlorophenyl)cyclohexanol] was tested, and the IC50 was over 10000 nM. For `NCC1(c2ccc(Cl)c(Cl)c2)CCCC(O)C1` (single isomer, unassigned) [184 E2, Cis-3-(aminomethyl)-3-(3,4-dichlorophenyl)cyclohexanol], the IC50 was over 10000 nM. `NCC1(c2ccc(Cl)c(Cl)c2)CCCC(O)C1` (single isomer, unassigned) [185 E1, Trans-3-(aminomethyl)-3-(3,4-dichlorophenyl)cyclohexanol] gave an IC50 of over 10000 nM. `NCC1(c2ccc(Cl)c(Cl)c2)CCCC(O)C1` (single isomer, unassigned) [185 E2, Trans-3-(aminomethyl)-3-(3,4-dichlorophenyl)cyclohexanol] showed an IC50 of over 10000 nM. `CC(N)C1(c2ccc(OC(F)(F)F)cc2)CCCCC1` (centres unmarked) [Compound 19, 1-(1-(4-(trifluoromethoxy)phenyl)cyclohexyl)ethanamine] gave an IC50 of 107 nM. Compound `CC(N)C1(c2ccc(-c3ccco3)cc2)CCCCC1` (centres unmarked) [Compound 22, 1-(1-(4-(furan-2-yl)phenyl)cyclohexyl)ethanamine] has an IC50 of 296 nM. Compound `CNCC1(c2ccc(OC(F)(F)F)cc2)CCC(C)(O)CC1` (centres unmarked) [Compound 247, 1-methyl-4-((methylamino)methyl)-4-(4-(trifluoromethoxy)phenyl)cyclohexanol] has an IC50 of 707 nM. For `CN(C)CC1(c2ccc(OC(F)(F)F)cc2)CCC(O)CC1` (centres unmarked) [Compound 250, 4-((dimethylamino)methyl)-4-(4-(trifluoromethoxy)phenyl)cyclohexanol], the IC50 was 47 nM. Work on `CNCC1(c2ccc(Cl)c(Cl)c2)CCC(F)(F)CC1` [Compound 268, 1-(1-(3,4-dichlorophenyl)-4,4-difluorocyclohexyl)-N-methylmethanamine] yielded an IC50 of 704 nM. `CC1(O)CCC(CN)(c2ccc(Cl)c(Cl)c2)CC1` (centres unmarked) [Compound 272, 4-(aminomethyl)-4-(3,4-dichlorophenyl)-1-methylcyclohexanol] showed an IC50 of over 10000 nM. `CC1(O)CCC(CN)(c2ccc(Cl)c(Cl)c2)CC1` (centres unmarked) [Compound 275, 4-(aminomethyl)-4-(3,4-dichlorophenyl)-1-methylcyclohexanol] was tested, and the IC50 was 1190 nM.

Each compound was assayed against T1, human dopamine reuptake transporter (Homo sapiens, UniProt Q01959) (assay: cell-based). Conditions: Human IC50 (nM) hDAT.
T1 construct: expressed in transfected cells; host or cells: CHO-K1 or HEK293
T1 sequence (Q01959 whole entry): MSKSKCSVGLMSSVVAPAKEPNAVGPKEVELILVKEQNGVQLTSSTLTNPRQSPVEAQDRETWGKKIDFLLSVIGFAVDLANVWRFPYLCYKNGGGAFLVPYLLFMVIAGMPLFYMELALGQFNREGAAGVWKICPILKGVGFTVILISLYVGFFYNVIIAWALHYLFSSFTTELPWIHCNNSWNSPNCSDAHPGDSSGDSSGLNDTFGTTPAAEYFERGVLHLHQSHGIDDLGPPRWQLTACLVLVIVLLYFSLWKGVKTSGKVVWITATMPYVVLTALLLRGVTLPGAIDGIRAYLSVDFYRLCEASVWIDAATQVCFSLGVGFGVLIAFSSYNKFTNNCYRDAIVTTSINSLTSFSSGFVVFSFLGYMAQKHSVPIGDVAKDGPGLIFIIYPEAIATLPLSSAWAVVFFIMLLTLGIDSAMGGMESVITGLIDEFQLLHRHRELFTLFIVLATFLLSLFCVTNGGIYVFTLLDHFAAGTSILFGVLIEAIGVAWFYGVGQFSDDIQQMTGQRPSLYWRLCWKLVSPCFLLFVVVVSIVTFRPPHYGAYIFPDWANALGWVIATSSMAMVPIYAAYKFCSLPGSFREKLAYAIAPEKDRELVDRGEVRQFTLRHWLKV
In the case of `NCC1(c2ccc(Cl)c(Cl)c2)CC=CCC1` (centres unmarked) [Compound 71], the IC50 was 123 nM.

Same assay, conditions: recombinant human dopamine transporter (DAT); read-out: Human IC50 (nM) hDAT
`CN(C)C[C@]1(c2ccc(Cl)c(Cl)c2)CCC[C@H](O)C1` (relative stereo) [Compound 203, cis-3-(3,4-dichlorophenyl)-3-((dimethylamino)methyl)cyclohexanol] was tested, and the IC50 was 1.4 nM. With `CNC(C)C1(c2cccc3ccccc23)CCCCC1` (single isomer, unassigned) [59 E1, N-methyl-1-(1-(naphthalen-1-yl)cyclohexyl)ethanamine] the IC50 was 1750 nM. Work on `CNC(C)C1(c2cccc3ccccc23)CCCCC1` (single isomer, unassigned) [59 E2, N-methyl-1-(1-(naphthalen-1-yl)cyclohexyl)ethanamine] yielded an IC50 of 3870 nM. Work on `CCC(NC)C1(c2ccc(Cl)c(Cl)c2)CCCCC1` (single isomer, unassigned) [62 E1, 1-(1-(3,4-dichlorophenyl)cyclohexyl)-N-methylpropan-1-amine] yielded an IC50 of 39 nM. `CCC(NC)C1(c2ccc(Cl)c(Cl)c2)CCCCC1` (single isomer, unassigned) [62 E2, 1-(1-(3,4-dichlorophenyl)cyclohexyl)-N-methylpropan-1-amine] was tested, and the IC50 was 4 nM. For `CNCC1(c2ccc(OC(F)(F)F)cc2)CCCCC1O` (single isomer, unassigned) [146 E1, trans-2-((Methylamino)methyl)-2-(4-(trifluoromethoxy)phenyl) cyclohexanol], the IC50 was over 10000 nM. In the case of `CNCC1(c2ccc(OC(F)(F)F)cc2)CCCCC1O` (single isomer, unassigned) [146 E2, trans-2-((Methylamino)methyl)-2-(4-(trifluoromethoxy)phenyl) cyclohexanol], the IC50 was over 10000 nM. For `COc1ccc(C2(CN(C)C)CCCCC2O)cc1` (single isomer, unassigned) [155 E1, Cis-2-((dimethylamino)methyl)-2-(4-methoxyphenyl)cyclohexanol], the IC50 was over 10000 nM. Compound `COc1ccc(C2(CN(C)C)CCCCC2O)cc1` (single isomer, unassigned) [155 E2, Cis-2-((dimethylamino)methyl)-2-(4-methoxyphenyl)cyclohexanol] has an IC50 of over 10000 nM. For `CN(C)CC1(c2ccc(Cl)c(Cl)c2)CCCC(F)(F)C1` (single isomer, unassigned) [206 E1, 1-(1-(3,4-dichlorophenyl)-3,3-difluorocyclohexyl)-N,N-dimethylmethanamine], the IC50 was 59 nM. In the case of `CN(C)CC1(c2ccc(Cl)c(Cl)c2)CCCC(F)(F)C1` (single isomer, unassigned) [206 E2, 1-(1-(3,4-dichlorophenyl)-3,3-difluorocyclohexyl)-N,N-dimethylmethanamine], the IC50 was under 1 nM. `NCC1(c2ccc(F)c(Cl)c2)CCCCC1` [Compound 32, (1-(3-chloro-4-fluorophenyl)cyclohexyl)-methanamine] gave an IC50 of 424 nM. With `CNCC1(c2ccc3ccccc3c2)CCC(O)CC1` (centres unmarked) [Compound 227, 4-((methylamino)methyl)-4-(naphthalen-2-yl)cyclohexanol] the IC50 was 5780 nM. With `CNCC1(c2ccc3ccccc3c2)CCC(F)CC1` (centres unmarked) [Compound 232, 1-(4-fluoro-1-(naphthalen-2-yl)cyclohexyl)-N-methylmethanamine] the IC50 was 25 nM. `CNCC1(c2ccc3ccccc3c2)CCC(F)CC1` (centres unmarked) [Compound 236, 1-(4-fluoro-1-(naphthalen-2-yl)cyclohexyl)-N-methylmethanamine] showed an IC50 of 444 nM. With `NCC1(c2ccc(Cl)c(Cl)c2)CCC(F)CC1` (centres unmarked) [Compound 253, (1-(3,4-dichlorophenyl)-4-fluorocyclohexyl)methanamine] the IC50 was 37 nM. Work on `NCC1(c2ccc(Cl)c(Cl)c2)CCC(F)CC1` (centres unmarked) [Compound 260, (1-(3,4-dichlorophenyl)-4-fluorocyclohexyl)methanamine] yielded an IC50 of 306 nM. `CCC1(O)CCC(CNC)(c2ccc(Cl)c(Cl)c2)CC1` (centres unmarked) [Compound 279, 4-(3,4-dichlorophenyl)-1-ethyl-4-((methylamino)methyl)cyclohexanol] showed an IC50 of 1450 nM. In the case of `CCC1(O)CCC(CNC)(c2ccc(Cl)c(Cl)c2)CC1` (centres unmarked) [Compound 282, 4-(3,4-dichlorophenyl)-1-ethyl-4-((methylamino)methyl)cyclohexanol], the IC50 was 186 nM. `NC[C@]1(c2ccc(Cl)c(Cl)c2)CC[C@H](O)CC1` [Compound 299, (1s,4s)-4-(aminomethyl)-4-(3,4-dichlorophenyl)cyclohexanol] gave an IC50 of 720 nM.
